The data set in a line: molar enthalpy of vaporization or sublimation. As to conditions: 298.15 K; Liquid; Static calorimetry.

Numbers after ± are expanded uncertainties.

`NCCN1CCOCC1` [4-morpholineethanamine]: the molar enthalpy is 15.3 ± 0.932 kcal/mol.

Consider `NCCCN1CCOCC1` [N-(3-aminopropyl)morpholine], for which the molar enthalpy was found to be 14.8 ± 0.86 kcal/mol.

The values are drawn from the NIST ThermoML archive (doi:10.1016/j.jct.2018.03.001).
